Laboratory results: patent US20040077618A1, “Cycloalkylamides and their therapeutic applications” (priority 2002, published 2004)

Key:
CD-1 mice [1] = assay: Subcutaneous pentylenetetrazole (PTZ) seizure procedure; format: in vivo; details: Mus musculus; PTZ 85 mg/kg subcutaneous; oral pretreatment 30 minutes prior; observed 15 minutes; linear regression; male CD-1 mice; read-out: ED50 (dose at which 50% of the mice were protected from tonic seizures)
Method: (§1) Adult, male, CD-1 mice (22-25 grams) were obtained from Charles River Laboratories (Portage, Mich.) and housed at Abbott Laboratories (Abbott Park) under standard lighting conditions of 12 hours on/12 hours off, with lights on at 6 a.m. Food and water were provided ad libitum and mice weighed 25-35 grams at the time of testing.
(§2) Compounds were prepared for oral administration by suspending them in a vehicle of 100 uL Tween® 80 per mL hydroxypropyl methylcellulose (2 mg/mL, Abbott Laboratories). Compound solutions were administered at a volume of 10 mL/kg, p.o.
The method used was similar to that of E. A. Swinyard, General principles: Experimental selection, quantification and evaluation of anti-convulsants, Anti-epileptic Drugs, Third Edition, R. Levey, et al., Editors. 1989, Raven Press Ltd: New York. During the experiment the mice were housed individually in clear polycarbonate cages for observation. […] Seizures were induced by the subcutaneous injection of pentylenetetrazole (PTZ, 85 mg/kg) just below the nape of the neck. […] A total of 20 mice were used in each group. The ED50 for the compounds were calculated using linear regression and represent the dose at which 50% of the mice were protected from tonic seizures.

CD-1 mice [2] = assay: Maximal electroshock procedure (protection from tonic seizures); format: in vivo; details: Mus musculus, corneal electrodes 50 mA 0.4 second, oral pretreatment 30 minutes prior, PROBIT analysis, male CD-1 mice, read-out: ED50 (dose at which 50% of the mice were protected from tonic seizures)
Method: as §1, §2
The method used was similar to that of E. A. Swinyard, General principles: Experimental selection, quantification and evaluation of anti-convulsants, Anti-epileptic Drugs, Third Edition, R. Levey, et al., Editors. 1989, Raven Press Ltd: New York. Mice were pretreated orally with compounds of the present invention 30 minutes prior to electrical stimulation. Electrical stimulation consisted of pulsed electrical current (50 mA, 0.4 second duration, pulse width 0.5 msec, 60 pulses/sec) applied via corneal electrodes to induce seizure. The stimulation was delivered with an ECT Unit (Ugo Basile #7801). […] The percent protection from tonic seizures was calculated by dividing the number of protected mice by the total number in the group. […]

CCCC(CCC)C(=O)O [Valproate]
ED50 (CD-1 mice [1]): 1800 µmol/kg | ED50 (CD-1 mice [2]): 1200 µmol/kg
